Columns and labels:
[1] = system: Beckmannia syzigachne; assay: Pre-emergence test experiment; assay type: in vivo; settings: activity level, sprayed after sowing, 4 weeks
Description: (§1) Monocotyledonous and dicotyledonous weed seeds as well as major crop seeds (wheat, corn, rice, soybean, peanut, cotton, oilseed rape, millet, and sorghum) were placed in plastic pots filled with soil, and then covered with 0.5-2 cm of soil. The test compounds of the present invention were individually dissolved with acetone, then added with Tween 80, diluted with a certain amount of water to obtain a solution of a certain concentration, and sprayed immediately after sowing. After drug application, cultivation was conducted for 4 weeks in a greenhouse and then the experimental results were observed.

[2] = system: Setaria viridis; assay: Pre-emergence test experiment; assay type: in vivo; settings: activity level, sprayed after sowing, 4 weeks
Description: as §1

[3] = system: Arivela viscosa; assay: Activity test of compositions, soil sealing treatment (S); assay type: in vivo; settings: A alone 60 g a.i./ha, fresh weight inhibition rate 21 days after treatment
Procedure: (§2) The required active ingredient B was purchased from a reagent company or synthesized by a known method. The technical materials were all dissolved with acetone solvents and diluted with an aqueous solution of 0.1% Tween 80 emulsifier, which were to be used immediately after dilution.
(§3) Weeds were cultivated in a controllable sunlight greenhouse at 20 to 30° C., in natural light, and with relative humidity of 57% to 72%. […] The test soil was quantitatively filled to 3/4 of the pot, and then watered from the bottom of the pot to completely wet the soil to saturation. The test weed seeds were accelerated to just germinate, and then evenly and quantitatively sowed on the soil surface, covered with 0.5-1 cm soil according to the sizes of the seeds, and ready for use 72 hours after sowing.
(§4) Each treatment was repeated 4 times. Four pots with 20 weed seeds sowed per pot were treated each time.
(§5) The well-sowed test materials were evenly placed on a platform with an area of 0.5 m^2, and foliage spraying was carried out by the 3WP-2000-type walking spray tower at a dosage of 450 kg/ha and a spray pressure of 0.3 MPa. After all the solution was sprayed, the air valve was closed, and 30 seconds later, the door of the spray tower was opened, and the nutritional bowl was taken out. Then the air valve was opened, and the spray tube was cleaned by spraying 50 ml of water.
(§6) A method for investigating absolute numbers was employed. Whole seedlings of survival weeds were cut off with a blade along the soil surface, and the fresh weight of the weeds was weighed using an analytical balance. For dead weeds, the fresh weight thereof was zero.
(§7) The investigation was performed 21 days after the treatment for once in total.
(§8) The theoretical fresh weight inhibition rate of a mixed combination of each treatment was calculated by the Gowing method (E0=X+Y−X*Y/100). […] An optimal ratio was determined according to the actual control effects, characteristics of herbicides, and balance of the formulation. In the formula, X represents the fresh weight inhibition rate of the active ingredient A in a dosage of P; Y represents the fresh weight inhibition rate of the active ingredient B in a dosage of Q. The statistical results are shown in Table 4.

[4] = system: Cyperus glomeratus; assay: as above; assay type: in vivo; settings: A alone 30 g a.i./ha, fresh weight inhibition rate 21 days after treatment
Procedure: as §2, §3, §4, §5, §6, §7, §8

[5] = system: Echinochloa glabrescens; assay: as above; assay type: in vivo; settings: A alone 30 g a.i./ha, fresh weight inhibition rate 21 days after treatment
Procedure: as §2, §3, §4, §5, §6, §7, §8

[6] = system: Oxybasis glauca; assay: as above; assay type: in vivo; settings: A alone 60 g a.i./ha, fresh weight inhibition rate 21 days after treatment
Procedure: as §2, §3, §4, §5, §6, §7, §8

[7] = system: Echinochloa crusgalli; assay: Weed control effect evaluation in rice fields; assay type: in vivo; settings: activity level, 0.5-leaf stage, flooded pot, 14th day, weed resistant to pyrazosulfuron
Description: (§9) After rice field soil was loaded into a 1/1,000,000 ha pot, the seeds of Echinochloa crusgalli, Echinochloa phyllopogon, Monochoria vaginalis, Leptochloa chinensis, and Ludwigia prostrata were sowed and gently covered with soil, then left to stand in a greenhouse with water storage of 0.5-1 cm deep. The tuber of Sagittaria trifolia was planted in the next day or 2 days later. The water storage was kept at a depth of 3-4 cm thereafter. When the Echinochloa crusgalli, Echinochloa phyllopogon, and Leptochloa chinensis reached their 0.5-leaf stages and the Sagittaria trifolia reached the time point of the primary leaf stage, WP or SC aqueous dilutions of the compounds of the present invention formulated according to common formulation methods were homogeneously dripped to the specified effective amount using pipettes for treatment.

[8] = system: Echinochloa phyllopogon; assay: Weed control effect evaluation in rice fields; assay type: in vivo; settings: activity level, 0.5-leaf stage, flooded pot, 14th day, weed resistant to pyrazosulfuron
Description: as §9

[9] = system: Digitaria ischaemum; assay: Activity test of compositions, soil sealing treatment (S); assay type: in vivo; settings: A alone 60 g a.i./ha, fresh weight inhibition rate 21 days after treatment
Description: as §2
The test soil was quantitatively filled to 3/4 of the pot, and then watered from the bottom of the pot to completely wet the soil to saturation. The test weed seeds were accelerated to just germinate, and then evenly and quantitatively sowed on the soil surface, covered with 0.5-1 cm soil according to the sizes of the seeds, and ready for use 72 hours after sowing.
as §4, §5, §6, §7, §8

[10] = system: Rice; settings: japonica, in vivo, 7 days
Procedure: In addition, after being loaded into the 1/1,000,000 ha pot, the rice field soil was leveled to keep the water storage at a depth of 2-3 cm. The rice (japonica rice) at 3-leaf stage was transplanted at a transplanting depth of 2-3 cm the next day. The compounds of the present invention were treated in the same manner as above on the 3rd day after the transplantation.
The effects were evaluated according to the above-mentioned activity level criteria.

[11] = system: Soybean; settings: in vivo, 4 weeks
Description: as §1

[12] = system: Corn; settings: in vivo, 4 weeks
Description: as §1

[13] = system: Cotton; settings: in vivo, 4 weeks
Description: as §1

[14] = system: Peanut; settings: in vivo, 4 weeks
Description: as §1

[15] = system: Echinochloa crus-galli var. austrojaponensis; assay: Activity test of compositions, early post-emergence foliage spray (F-EP); assay type: in vivo; settings: fresh weight inhibition rate 21 days after treatment
Procedure: as §2
(§10) Weeds were cultivated by a pot culture method. […] Weed seeds with plump and uniform grains were selected, soaked in lukewarm water at 25° C. for 6 hours, and accelerated to germinate in a 28° C. biochemical incubator (in darkness). The weed seeds that had just germinated were evenly placed on the surface of the soil and then covered with 0.5-1 cm soil according to the sizes of seeds.
(§11) The culture was carried out in a controllable sunlight greenhouse at 20 to 30° C., in natural light, and with relative humidity of 57% to 72%.
as §4
(§12) The agents were used once in total in the experiment. In the stage of 1-2 leaves, the weeds were thinned out to maintain 10 strains per treatment for later use.
as §5, with “well-cultured” for “well-sowed”, “water. The test materials were transferred to and routinely cultured in a greenhouse after the treatment.” for “water.”
as §6, §7, §8

[16] = system: Cyperus glomeratus; assay: as above; assay type: in vivo; settings: A alone 30 g a.i./ha, fresh weight inhibition rate 21 days after treatment
Procedure: as §2, §10, §11, §4, §12
as §5, with “well-cultured” for “well-sowed”, “water. The test materials were transferred to and routinely cultured in a greenhouse after the treatment.” for “water.”
as §6, §7, §8

[17] = system: Soliva anthemifolia; assay: as above; assay type: in vivo; settings: A alone 60 g a.i./ha, fresh weight inhibition rate 21 days after treatment
Procedure: as §2, §10, §11, §4, §12
as §5, with “well-cultured” for “well-sowed”, “water. The test materials were transferred to and routinely cultured in a greenhouse after the treatment.” for “water.”
as §6, §7, §8

[18] = system: Echinochloa glabrescens; assay: as above; assay type: in vivo; settings: A alone 30 g a.i./ha, fresh weight inhibition rate 21 days after treatment
Procedure: as §2, §10, §11, §4, §12
as §5, with “well-cultured” for “well-sowed”, “water. The test materials were transferred to and routinely cultured in a greenhouse after the treatment.” for “water.”
as §6, §7, §8

[19] = system: Direct sowing rice; settings: in vivo, 7 days
Procedure: To simulate a field of direct sowing rice, a 5-cm water layer was added to the container first, fully mixed with mud to form slurry, and then rice seeds were scattered in. After the slurry became clear, the water layer was removed. The soil was kept moist and applied with drug solution evenly by spraying. The soil was rehydrated to 3-cm deep 3-4 days after drug application.
The doses of the compounds used in the above-mentioned experiments were 3.75, 7.5, 15, 30, 60, and 120 g a.i./ha. […] The effects were evaluated according to the above-mentioned activity level criteria.

[20] = system: Wheat; settings: in vivo
Description: as §1

[21] = system: Lolium perenne; assay: Pre-emergence test experiment; assay type: in vivo; settings: activity level (fresh weight growth control rate), sprayed after sowing, 4 weeks
Description: as §1

Compound: CC(C)C12CCC(C)(O1)C(OCc1c(F)cccc1Br)C2 (racemic) [Compound 1]
- Beckmannia syzigachne 60 g a.i./ha [1]: 9
- Setaria viridis 30 g a.i./ha [2]: 9
- Control effect of A applied alone in a corresponding dose (%) [3]: 18.5%
- Control effect of A applied alone in a corresponding dose (%) [4]: 56.1%
- Control effect of A applied alone in a corresponding dose (%) [5]: 58.3%
- Control effect of A applied alone in a corresponding dose (%) [6]: 19.8%
- Echinochloa crusgalli 7.5 g a.i./ha [7]: 9
- Echinochloa phyllopogon 7.5 g a.i./ha [8]: 9
- Control effect of A applied alone in a corresponding dose (%) [9]: 56.4%
- Rice 30 g a.i./ha [10]: 0
- Soybean 60 g a.i./ha [11]: 0
- Corn 60 g a.i./ha [12]: 0
- Cotton 60 g a.i./ha [13]: 0
- Peanut 60 g a.i./ha [14]: 0
- Control effect of A applied alone in a corresponding dose (%) ([15]; A alone 30 g a.i./ha): 38.4%
- Control effect of A applied alone in a corresponding dose (%) ([15]; A alone 60 g a.i./ha): 52.7%
- Control effect of A applied alone in a corresponding dose (%) [16]: 51.5%
- Control effect of A applied alone in a corresponding dose (%) [17]: 22.8%
- Control effect of A applied alone in a corresponding dose (%) [18]: 48.7%

Compound: CC(C)C12CCC(C)(O1)C(OCc1c(F)cccc1Cl)C2 (centres unmarked) [Control compound C]
- Direct sowing rice 60 g a.i./ha [19]: 9
- Rice 60 g a.i./ha [10]: 9
- phytotoxicity to wheat [20]: unacceptable phytotoxicity

Compound: CC(C)C12CCC(C)(O1)C(OCc1ccccc1Br)C2 (centres unmarked) [Control compound A]
- Lolium perenne 30 g a.i./ha [21]: 1 (Level 1: growth control rate is less than 10%)

Reference: US20260191194A1, “OXABICYCLOALKANE COMPOUNDS, PREPARATION METHOD THEREFOR, AND HERBICIDAL COMPOSITION AND USE THEREOF” (QINGDAO KINGAGROOT CHEMICAL COMPOUND CO., LTD., priority 2022, published 2026)
